Patent publication US10351530B2, “Arylcyclohexyl pyrazoles as NRF2 regulators” (GlaxoSmithKline Intellectual Property Development Limited, priority 2015, dated 2019)

Columns and labels:
[1] = test system: NQO1 specific enzyme activity in BEAS-2B cells; test: BEAS-2B NQO1 MTT Assay; assay type: cell-based; details: NQO1 specific activity induction
From the text: NAD(P)H:quinone oxidoreductase 1 (NQO1), also called DT diaphorase, is a homodimeric FAD-containing enzyme that catalyzes obligatory NAD(P)H-dependent two-electron reductions of quinones and protects cells against the toxic and neoplastic effects of free radicals and reactive oxygen species arising from one-electron reductions. The transcription of NQO1 is finely regulated by NRF2, and thus NQO1 activity is a good marker for NRF2 activation. On day one, frozen BEAS-2B cells (ATCC) are thawed in a water bath, counted, and re-suspended at a concentration of 250,000 cells/mL. Fifty microliters of cells are plated in 384 well black clear-bottomed plates. Plates are incubated at 37° C., 5% CO2 overnight. On day two, plates are centrifuged and 50 nL of compound or controls are added to the cells. Plates are then incubated at 37° C., 5% CO2 for 48 hours. On day four, medium is aspirated from the plate and crude cell lysates are made by adding 13 uL of 1× Cell Signaling Technologies lysis buffer with 1 Complete, Mini, EDTA-free Protease Inhibitor Tablet (Roche) for each 10 mL of lysis buffer. After lysis plates are incubated for 20 minutes at room temperature. Two microliters of lysate are removed for use in Cell Titer Glo assay (Promega) and MTT cocktail is prepared (Prochaska et. al. 1998) for measurement of NQO1 activity. Fifty microliters of MTT cocktail is added to each well, plate is centrifuged, and analyzed on an Envision plate reader (Perkin Elmer) using Absorbance 570 nm label for 30 minutes. Product formation is measured kinetically and the pEC50 of NQO1 specific activity induction is calculated by plotting the change in absorbance (Delta OD/min) versus the log of compound concentration followed by 3-parameter fitting.

Keap1/NRF2 = biological target: T1, Keap1/NRF2 (Homo sapiens, UniProt Q14145); test: NRF2-Keap1 FP Assay (Kelch domain (321-609) of Keap1, TAMRA-labeled NRF2 ETGE peptide); assay type: binding; details: Keap1 (321-609) 20 nM, Tamra labeled peptide 8 nM
T1 construct: Keap1 (321-609) is diluted to 40 nM (2×) in 1× assay buffer
From the text: One model for the NRF2-Keap1 interaction is through two binding sites in the Neh2 domain on NRF2. The two sites are referred to as the DLG binding motif (latch domain, uM affinity) and the ETGE binding motif (hinge domain, nM affinity). The Keap1 protein consists of an N-terminal region (NTR), a broad complex, tramtrack, and brick a′ brac domain (BTB), an intervening region (IVR), a double glycine repeat domain (DGR or Kelch), and a C-terminal region. The DLG and ETGE motifs of NRF2's Neh2 domain bind to the Kelch domain of Keap1 at different affinities. In the Keap1 Kelch fluorescence polarization (FP) assay, a TAMRA-labeled 16 mer peptide (AFFAQLQLDEETGEFL) containing the ETGE motif of NRF2 and the Kelch domain (321-609) of Keap1 is used. The assay determines if a compound interferes with the binding between Keap1 […] and the TAMRA-labeled peptide. Binding of TAMRA-labeled NRF2 peptide to Keap1 (321-609) results in a high FP signal. If a compound interferes with the binding between the peptide and the protein, it will cause the assay signal to decrease. Thus, assay signal is inversely proportional to binding inhibition.
100 nl of 100× compound dose response curves (serial 3-fold dilutions) in DMSO are stamped using an Echo liquid handling system (Labcyte) into 384-well low volume black assay plates (Greiner, #784076), with DMSO in columns 6 and 18. The top concentration of compound is located in columns 1 and 13. Keap1 (321-609) is diluted to 40 nM (2×) in 1× assay buffer (50 mM Tris, pH 8.0, 100 mM NaCl, 5 mM MgCl2, 1 mM DTT, 2 mM CHAPS, and 0.005% BSA) and 5 ul is added using a Multidrop Combi (Thermo Electron Corporation) equipped with a metal tip dispenser to all wells of the compound plate, except column 18. Column 18 receives only 5 ul of assay buffer. Immediately, 5 uL of 16 nM (2×) of Tamra labeled peptide (AFFAQLQLDEETGEFL, 21st Century Biochemicals) is added to all wells of the plate. The plates are spun at 500 rpm for 1 min, incubated for 1 hr at room temperature, and read on an Analyst GT (Molecular Devices) equipped with excitation (530/25 nm) and emission (580/10 nm) filters designed for Tamra probes. A 561 nm dichroic mirror is also used in the Analyst. The final assay concentrations of Keap1 (321-609) and Tamra labeled peptide are 20 nM and 8 nM, respectively. Fluorescence measurements, represented as mP, are used in the transformation of the data. Compound activity is calculated based on percent inhibition, normalized against controls in the assay (Control 1 contains the Tamra peptide and Keap1 (321-609) together (0% response) and control 2 contains the Tamra peptide alone (100% response)). Data analysis is handled using the software package Abase XE (Surrey, United Kingdom. The % inhibition values are calculated by the equation: 100−(100*((compound response-average control 2)/(average control 1−average control 2))). For calculation of pIC50s, Abase XE uses a four parameter equation.

NRF2/Keap1 = biological target: T2, NRF2/Keap1 (Homo sapiens, UniProt Q14145); test: NRF2-Keap1 TR-FRET Assay (full length NRF2 and full length Keap1); assay type: binding; details: 25 nM Keap1-FlagHis, 50 nM biotin-NRF2 added
T2 construct: full length NRF2 protein and full length Keap1 protein (Keap1 exists a dimer) are used
From the text: In the NRF2-Keap1 TR-FRET (time-resolved fluorescence resonance energy transfer) assay, full length NRF2 protein and full length Keap1 protein (Keap1 exists a dimer) are used. The assay detects the ability of compound to displace the binding of FlagHis-tagged Keap1 with biotinylated, Avi-tagged NRF2 protein. Biotin-NRF2 binds to streptavidin-europium (a component of the detection mix) and Keap1-FlagHis is recognized by anti-Flag APC (allophycocyanin) antibody (also a component of the detection mix). If binding occurs between the two proteins, there will be an energy transfer from the Eu+3 (donor) at 615 nm to the APC (acceptor) at 665 nm. A potential Keap1 inhibitor will cause a reduction in the TR-FRET signal by interfering with the binding of Keap1 to NRF2.
One hundred nanoliters of 100× compound dose response curves (serial 3-fold dilutions) in DMSO are stamped using an Echo liquid handling system (Labcyte) into 384-well, low volume, black assay plates (Greiner, #784076), with DMSO in columns 6 and 18. The top concentration of compound is located in columns 1 and 13. All reagents are diluted in assay buffer (50 mM Tris, pH 8.0, 5 mM MgCl2, 100 mM NaCl, 0.005% BSA, 1 mM DTT, and 2 mM CHAPS). The BSA, DTT, and CHAPS are added to the assay buffer on the day of assay. Using a Multidrop Combi (Thermo Electron Corporation) equipped with a metal tip dispenser, 5 ul of 25 nM Keap1-FlagHis protein is added to all wells of the compound plate, with the exception of the wells in column 18. Wells in column 18 receive 5 ul of assay buffer instead. Plates are centrifuged at 500 rpm for 1 minute, covered with a plate lid, and incubated at 37° C. for 2.25 hours. Plates are then removed from the incubator and allowed to cool to RT for 15 minutes. Five microliters of 50 nM biotin-NRF2 protein is then added to all wells of the plates and the plates are spun at 500 rpm for 1 minute, followed by incubating at 4° C. for 1.25 hours. The plates are then allowed to warm to RT for 15 minutes, followed by the addition of 10 ul of detection mix (1 nM Streptavidin Eu+ W1024 and 5 ug/ml mouse anti-DYKDDDDK IgG conjugated to SureLight APC antibody; both from Columbia Biosciences) to all wells. Plates are spun at 500 rpm for 1 minute, incubated for 1 hour at RT, and read on an Envision plate reader using a 320 nm excitation filter and 615 nm and 665 nm emission filters. Compound response (% inhibition) and potency (pIC50) are calculated based on the ratio of the two emissions (665 nm/615 nm) and then the transformed data is normalized against controls in the assay (control 1=1% DMSO in the presence of NRF2 and Keap1 protein and control 2=1% DMSO in the absence of protein). Data analysis is handled using the software package Abase XE (Surrey, United Kingdom). The % inhibition values are calculated from the ratio (transformed) data by the equation: 100−(100*(compound response-average control 2)/(average control 1−average control 2)).
For calculation of pIC50s, Abase XE uses a four parameter equation.

T1 sequence (Q14145 321-609): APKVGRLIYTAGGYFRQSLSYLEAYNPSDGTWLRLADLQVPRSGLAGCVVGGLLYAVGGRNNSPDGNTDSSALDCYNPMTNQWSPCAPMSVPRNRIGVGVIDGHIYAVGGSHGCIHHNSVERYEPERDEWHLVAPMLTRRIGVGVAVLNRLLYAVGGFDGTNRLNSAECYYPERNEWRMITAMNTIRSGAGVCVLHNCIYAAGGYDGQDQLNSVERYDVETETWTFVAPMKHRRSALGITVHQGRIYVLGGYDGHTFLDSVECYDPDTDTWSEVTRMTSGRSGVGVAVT
T2 sequence (Q14145 whole entry): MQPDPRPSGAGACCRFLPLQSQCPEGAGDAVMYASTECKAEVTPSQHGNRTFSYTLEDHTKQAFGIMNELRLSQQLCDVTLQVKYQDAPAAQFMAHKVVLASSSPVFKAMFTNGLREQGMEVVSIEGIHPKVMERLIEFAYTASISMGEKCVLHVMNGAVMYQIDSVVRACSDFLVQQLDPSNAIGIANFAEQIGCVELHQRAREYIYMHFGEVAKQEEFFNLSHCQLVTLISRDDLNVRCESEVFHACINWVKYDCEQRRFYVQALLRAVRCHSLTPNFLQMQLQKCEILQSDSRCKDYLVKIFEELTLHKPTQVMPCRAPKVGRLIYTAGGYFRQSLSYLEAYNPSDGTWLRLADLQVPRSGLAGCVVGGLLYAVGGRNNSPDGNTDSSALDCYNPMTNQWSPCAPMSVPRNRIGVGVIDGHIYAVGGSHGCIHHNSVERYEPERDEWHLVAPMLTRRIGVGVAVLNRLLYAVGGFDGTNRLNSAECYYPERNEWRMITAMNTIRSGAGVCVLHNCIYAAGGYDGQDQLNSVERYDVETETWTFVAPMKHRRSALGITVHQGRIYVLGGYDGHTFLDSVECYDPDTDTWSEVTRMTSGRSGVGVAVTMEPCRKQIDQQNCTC

SMILES	IC50 (Keap1/NRF2)	IC50 (NRF2/Keap1)	EC50 ([1]; Homo sapiens, BEAS-2B, 48 h)	EC50 ([1]; 48 hours)
O=C(O)c1cnn(-c2cccc(C3CCCC(n4ncc5c4CCCCC5)C3)c2)c1C1CC1 (racemic) [Example 9, 1-[3-(3-{1H,4H,5H,6H,7H,8H-cyclohepta[c]pyrazol-1-yl}cyclohexyl)phenyl]-5-cyclopropyl-1H-pyrazole-4-carboxylic Acid]	0.1 to 1 µM	1 to 10 µM	1 to 10 µM	–
O=C(O)c1cnn(-c2cccc(C3CCC(n4ncc5c4CCCC5=O)C3)c2)c1C1CC1 (stereo not drawn) [Example 15, 5-Cyclopropyl-1-{3-[3-(4-oxo-4,5,6,7-tetrahydro-indazol-1-yl)-cyclopentyl]-phenyl}-1H-pyrazole-4-carboxylic Acid]	0.1 to 1 µM	1 to 10 µM	1 to 10 µM	–
CCOC[C@@H]1CCCN1C(=O)C1CCCC(c2cccc(-n3ncc(C(=O)O)c3C3CC3)c2)C1 (single isomer, unassigned) [Example 18h]	1 to 10 µM	1 to 10 µM	–	1 to 10 µM
CCCC1CCCCC1N(C)C(=O)C1CCCC(c2cccc(-n3ncc(C(=O)O)c3C3CC3)c2)C1 (stereo not drawn) [Example 22, 5-Cyclopropyl-1-(3-(3-(methyl(2-propylcyclohexyl)carbamoyl)cyclohexyl)phenyl)-1H-pyrazole-4-carboxylic Acid]	0.1 to 1 µM	1 to 10 µM	1 to 10 µM	–
O=C(O)c1cnn(-c2cccc(C3CCC(n4ncc5c4CCC5)C3)c2)c1C1CC1 (mixture of isomers) [Example 10, 1-[3-(3-{1H,4H,5H,6H-cyclopenta[c]pyrazol-1-yl}cyclopentyl)phenyl]-5-cyclopropyl-1H-pyrazole-4-carboxylic Acid]	0.1 to 1 µM	10 to 100 µM	1 to 10 µM	–
CC1(C)CCc2cnn([C@H]3CCC[C@@H](c4cccc(-n5ncc(C(=O)O)c5C5CC5)c4)C3)c21 (racemic) [Example 24, 5-Cyclopropyl-1-(3-(-3-(6,6-dimethyl-5,6-dihydrocyclopenta[c]pyrazol-1(4H)-yl)cyclohexyl)phenyl)-1H-pyrazole-4-carboxylic Acid]	0.1 to 1 µM	1 to 10 µM	1 to 10 µM	–

The next lines start with results.

IC50 (Keap1/NRF2)	IC50 (NRF2/Keap1)	SMILES	EC50 ([1]; Homo sapiens, BEAS-2B, 48 h)	EC50 ([1]; 48 hours)
0.1 to 1 µM	1 to 10 µM	CN(C(=O)C1CCCC(c2cccc(-n3ncc(C(=O)O)c3C3CC3)c2)C1)C1CCCCC1 (stereo not drawn) [Example 21, 1-(3-(3-(Cyclohexyl(methyl)carbamoyl)cyclohexyl)phenyl)-5-cyclopropyl-1H-pyrazole-4-carboxylic Acid]	1 to 10 µM	–
0.1 to 1 µM	1 to 10 µM	O=C(O)c1cnn(-c2cccc(C3CCCC(C(=O)N4CCCCCC4)C3)c2)c1C1CC1 (stereo not drawn) [Example 20, 1-(3-(3-(Azepane-1-carbonyl)cyclohexyl)phenyl)-5-cyclopropyl-1H-pyrazole-4-carboxylic Acid]	1 to 10 µM	–
0.1 to 1 µM	1 to 10 µM	O=C(O)c1cnn(-c2cccc([C@@H]3CCC[C@H](C(=O)N4CCCC5(CCCC5)C4)C3)c2)c1C1CC1 (racemic) [Example 4, 1-[3-(3-{7-Azaspiro[4.5]decane-7-carbonyl}cyclohexyl)phenyl]-5-cyclopropyl-1H-pyrazole-4-carboxylic Acid]	1 to 10 µM	–
0.1 to 1 µM	1 to 10 µM	CCCC1CCCCN1C(=O)[C@H]1CCC[C@@H](c2cccc(-n3ncc(C(=O)O)c3C3CC3)c2)C1 (mixture of isomers) [Example 5, 5-Cyclopropyl-1-{3-[3-(2-propylpiperidine-1-carbonyl)cyclohexyl]phenyl}-1H-pyrazole-4-carboxylic Acid]	1 to 10 µM	–
0.1 to 1 µM	1 to 10 µM	O=C(O)c1cnn(-c2cccc([C@H]3CCC[C@@H](C(=O)N4CCCCC4)C3)c2)c1C1CC1 (racemic) [Example 3, 5-Cyclopropyl-1-{3-[3-(piperidine-1-carbonyl)cyclohexyl]phenyl}-1H-pyrazole-4-carboxylic Acid]	1 to 10 µM	–
